Here are results for 29 molecules from patent publication US9650339B2, “Inhibitors of histone demethylases” (Gilead Sciences, Inc., priority 2013, dated 2017).

For one experiment, the target named is T1, KDM4C (JMJD2C) (Homo sapiens, UniProt Q9H3R0).
T1 sequence (Q9H3R0 1-349): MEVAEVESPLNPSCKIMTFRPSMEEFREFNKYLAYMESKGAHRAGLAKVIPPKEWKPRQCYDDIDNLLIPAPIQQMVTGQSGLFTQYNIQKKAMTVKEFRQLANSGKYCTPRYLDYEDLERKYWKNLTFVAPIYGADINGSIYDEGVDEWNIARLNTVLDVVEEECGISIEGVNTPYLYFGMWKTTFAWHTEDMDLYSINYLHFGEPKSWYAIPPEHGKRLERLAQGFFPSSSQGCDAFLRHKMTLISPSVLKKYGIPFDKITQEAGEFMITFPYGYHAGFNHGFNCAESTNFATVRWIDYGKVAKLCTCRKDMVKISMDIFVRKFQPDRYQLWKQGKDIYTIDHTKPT
Description: Histone lysine demethylase AlphaLISA assay, KDM4C. The format is biochemical. The note with it: read-out: KDM4C HDME Inhibition IC50. In outline:
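Biotinylated methylated H3 peptides (K9, K4, K27 or K36 marks) served as substrate, with 25 μM L-Asc and 10 μM α-KG. Enzymes were preincubated 10 min, then exposed to compounds (3% DMSO solutions) 10 min; product detected by AlphaLISA acceptor and streptavidin donor beads at room temperature in dark.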

The next experiment concerns the target T2, KDM5B (Homo sapiens, UniProt Q9UGL1).
T2 construct: (a.a. 1-752); host or cells: U2OS
T2 sequence (Q9UGL1 1-752): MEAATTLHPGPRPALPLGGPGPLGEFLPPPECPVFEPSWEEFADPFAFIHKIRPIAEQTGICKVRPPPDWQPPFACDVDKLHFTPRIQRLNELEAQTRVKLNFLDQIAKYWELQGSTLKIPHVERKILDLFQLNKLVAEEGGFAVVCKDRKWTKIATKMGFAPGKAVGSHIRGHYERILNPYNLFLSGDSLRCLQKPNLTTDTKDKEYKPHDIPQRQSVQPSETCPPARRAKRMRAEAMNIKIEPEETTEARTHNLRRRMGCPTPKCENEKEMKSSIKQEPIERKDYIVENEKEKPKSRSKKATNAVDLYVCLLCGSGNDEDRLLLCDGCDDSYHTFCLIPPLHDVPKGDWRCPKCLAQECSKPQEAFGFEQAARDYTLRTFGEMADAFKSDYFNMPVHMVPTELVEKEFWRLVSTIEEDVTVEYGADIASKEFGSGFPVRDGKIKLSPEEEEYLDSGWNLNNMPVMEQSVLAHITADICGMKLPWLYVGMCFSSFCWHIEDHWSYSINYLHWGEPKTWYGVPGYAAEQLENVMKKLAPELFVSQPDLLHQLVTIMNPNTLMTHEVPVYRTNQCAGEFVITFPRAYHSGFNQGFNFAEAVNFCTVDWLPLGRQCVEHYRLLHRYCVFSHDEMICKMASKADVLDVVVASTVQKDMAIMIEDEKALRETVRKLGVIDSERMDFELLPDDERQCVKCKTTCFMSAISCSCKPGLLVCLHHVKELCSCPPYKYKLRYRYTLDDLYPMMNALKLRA
Description: Histone lysine demethylase immunofluorescence assay, U2OS cells transfected with KDM5B. The format is cell-based. The settings on record: U2OS cells transfected with pCMVHA KDM5B; mark detected H3K4me2; 20 hours. Summed up: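 U2OS cells were transiently transfected with HA-tagged demethylase and reseeded after 6 h into compound-containing DMEM/10% FBS for 20 h. Cells were fixed in formaldehyde and immunostained for HA and the relevant histone methyl mark, then imaged. IC50 is based on mean mark staining in HA+ transfected cells.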

As for `CCN(CCN(C)C)C(=O)CNCc1cc(/C=N/CCC2CCCCC2)ccn1` [Compound 63, 2-[({4-[[(2-cydohexylethyl)-imino]methyl]pyridin-2-yl}methyl)amino]-N-[2-(dimethylamino)-ethyl]-N-ethylacetamide], the half-maximal inhibitory concentration (IC50) on KDM4C (JMJD2C) and at KDM5B was under 250 nM in each case.

As for `CON=Cc1ccnc(CNCCCN(C)C)c1` [Compound 64, [3-(dimethylamino)-propyl]({4-[(methoxyimino)-methyl]pyridin-2-yl}methyl)amine], the IC50 on KDM4C (JMJD2C) and against KDM5B was over 2500 nM in each case.

On to `CCN(CC)CCCCNCc1cc(C2NCCN2C)ccn1` (stereo not shown) [Compound 65, [4-(diethylamino)-butyl]({[4-(1-methylimidazolidin-2-yl)pyridin-2-yl]methyl})amine], for which the IC50 on KDM4C (JMJD2C) is 250 to 2500 nM; against KDM5B, under 250 nM.

`CCN(CCN(C)C)C(=O)CNCc1cc(/C=N/CCO)ccn1` [Compound 66]: the IC50 at KDM4C (JMJD2C) and against KDM5B was under 250 nM in each case.

As for `CCN(CC)CCCCNCc1cc(/C=N\CCC2CCCCC2)ccn1` [Compound 67, (2-cyclohexylethyl)-({[2-({[4-(diethylamino)-butyl]amino}methyl)pyridin-4-yl]methylidene})-amine], the results for the concentration for half-maximal inhibition (IC50) on KDM4C (JMJD2C) and against KDM5B were 250 to 2500 nM and under 250 nM, respectively.

As to `CCN(CCN(C)C)C(=O)CNCc1cc(C2OCC(Cc3ccccc3)CN2C(=O)C(F)(F)F)ccn1` (stereo not shown) [Compound 90, 2-[({4-[5-benzyl-3-(trifluoroacetyl)-1,3-oxazinan-2-yl]pyridin-2-yl}methyl)amino]-N-[2-(dimethylamino)-ethyl]-N-ethylacetamide], the 50% inhibitory concentration (IC50) on KDM4C (JMJD2C) is 250 to 2500 nM; against KDM5B, under 250 nM.

Regarding `CCN(CCN(C)C)C(=O)CNCc1cc(C2OCC3(CC3)CN2C(=O)C(F)(F)F)ccn1` (stereo not shown) [Compound 91, N-[2--(dimethylamino)-ethyl]-N-ethyl-2-[({4-[7-(trifluoroacetyl)-5-oxa-7-azaspiro[2.5]-octan-6-yl]pyridin-2-yl}methyl)amino]-acetamide], the IC50 on KDM4C (JMJD2C) is 250 to 2500 nM; against KDM5B it was under 250 nM.

In the case of `CN(Cc1ccccc1F)C(=O)CNCc1cc(/C=N/CCO)ccn1` [Compound 92, N-[(2-fluorophenyl)methyl]-2-[({4-[[(2-hydroxyethyl)imino]-methyl]pyridin-2-yl}methyl)amino]-N-methylacetamide], the half-maximal inhibitory concentration (IC50) on KDM4C (JMJD2C) and on KDM5B was over 2500 nM in each case.

Consider `OCC/N=C/c1ccnc(CNCCc2ccccc2OCc2ccccc2)c1` [Compound 93, 2-[({2-[({2-[2-(benzyloxy)phenyl]-ethyl}amino)methyl]-pyridin-4-yl}methylidene)-amino]ethan-1-ol], for which the IC50 on KDM4C (JMJD2C) and at KDM5B was over 2500 nM throughout.

Consider `CCN(CCC#N)C(=O)CNCc1cc(/C=N/CCO)ccn1` [Compound 94, N-(2-cyanoethyl)-N-ethyl-2-[({4-[[(2-hydroxyethyl)imino]-methyl]pyridin-2-yl}methyl)amino]-acetamide], for which the IC50 on KDM4C (JMJD2C) and against KDM5B was 250 to 2500 nM each time.

Turning to `CC(C)C[C@H](NCc1cc(/C=N/CCO)ccn1)C(=O)N1CCCCC1` [Compound 95, (2S)-2-[({4-[[(2-hydroxyethyl)imino]-methyl]pyridin-2-yl}methyl)amino]-4-methyl-1-(piperidin-1-yl)pentan-1-one], the IC50 on KDM4C (JMJD2C) and against KDM5B was over 2500 nM in each case.

As for `CN(C)CC1CCC(CNCc2cc(C=O)ccn2)CC1` (stereo not shown) [Compound 97, 2-{[({4-[(dimethylamino)-methyl]cyclohexyl}-methyl)amino]-methyl}pyridine-4-carbaldehyde], the values for the IC50 at KDM4C (JMJD2C) and against KDM5B were over 2500 nM and under 250 nM, respectively.

For `CN(C)C/C=C/CNCc1cc(C=O)ccn1` [Compound 98, 2-({[(2E)-4-(dimethylamino)but-2-en-1-yl]amino}-methyl)pyridine-4-carbaldehyde], the concentration for half-maximal inhibition (IC50) on KDM4C (JMJD2C) is 250 to 2500 nM; on KDM5B it was under 250 nM.

Take `CN(C)C/C=C\CNCc1cc(C=O)ccn1` [Compound 99, 2-({[(2Z)-4-(dimethylamino)-but-2-en-1-yl]amino}methyl)-pyridine-4-carbaldehyde]: the concentration for half-maximal inhibition (IC50) at KDM4C (JMJD2C) and against KDM5B was over 2500 nM in each case.

Take `CN1CCC(CNCc2cc(C=O)ccn2)CC1` [Compound 100, 2-({[(1-methyl-piperidin-4-yl)methyl]amino}-methyl)pyridine-4-carbaldehyde]: the figures for the half-inhibitory concentration (IC50) at KDM4C (JMJD2C) and against KDM5B were over 2500 nM and under 250 nM, respectively.

Consider `CCN(CCN(C)C)C(=O)CNCc1cc(C=O)ccn1` [Compound 101], for which the IC50 at KDM4C (JMJD2C) and on KDM5B was under 250 nM in each case.

On to `O=Cc1ccnc(CNCC(=O)N2CCC[C@@H]2CN2CCCC2)c1` [Compound 102, 2-[({2-oxo-2-[(2R)-2-(pyrrolidin-1-ylmethyl)pyrrolidin-1-yl]ethyl}amino)-methyl]pyridine-4-carbaldehyde], for which the IC50 on KDM4C (JMJD2C) was under 250 nM; at KDM5B it was 250 to 2500 nM.

Turning to `CN1CCN(C(=O)CNCc2cc(C=O)ccn2)CC1` [Compound 103, 2-({[2-(4-methylpiperazin-1-yl)-2-oxoethyl]-amino}methyl)-pyridine-4-carbaldehyde], the IC50 is over 2500 nM on KDM4C (JMJD2C) and 250 to 2500 nM at KDM5B.

As to `CCN1CCCC1CNC(=O)CNCc1cc(C=O)ccn1` (stereo not shown) [Compound 104, N-[(1-ethylpyrrolidin-2-yl)methyl]-2-{[(4-formylpyridin-2-yl)methyl]amino}-acetamide], the IC50 on KDM4C (JMJD2C) and against KDM5B was 250 to 2500 nM throughout.

As to `CCN(CC)C(=O)CNCc1cc(C=O)ccn1` [Compound 105, N,N-diethyl-2-{[(4-formylpyridin-2-yl)methyl]amino}-acetamide], the IC50 on KDM4C (JMJD2C) was over 2500 nM; against KDM5B, 250 to 2500 nM.

Consider `O=Cc1ccnc(CNCC(=O)N2CCC(Cc3ccccc3)CC2)c1` [Compound 106, 2-({[2-(4-benzylpiperidin-1-yl)-2-oxoethyl]-amino}methyl)-pyridine-4-carbaldehyde], for which the IC50 at KDM4C (JMJD2C) was 250 to 2500 nM; on KDM5B, over 2500 nM.

Turning to `CCN(CC)CCCCNCc1cc(C=O)ccn1` [Compound 107, 2-({[4-(diethylamino)-butyl]amino}-methyl)pyridine-4-carbaldehyde], the IC50 at KDM4C (JMJD2C) was over 2500 nM; on KDM5B, under 250 nM.

In the case of `CN(C)CCCCNCc1cc(C=O)ccn1` [Compound 108, 2-({[4-(dimethylamino)-butyl]amino}methyl)-pyridine-4-carbaldehyde], the concentration for half-maximal inhibition (IC50) at KDM4C (JMJD2C) was over 2500 nM; at KDM5B it was under 250 nM.

Turning to `CN(C)CCNCc1cc(C=O)ccn1` [Compound 110, 2-({[2-(dimethylamino)-ethyl]amino}methyl)-pyridine-4-carbaldehyde], the IC50 is over 2500 nM on KDM4C (JMJD2C) and 250 to 2500 nM against KDM5B.

For the molecule `O=Cc1ccnc(CNCCCN2CCCC2)c1` [Compound 111, 2-({[3-(pyrrolidin-1-yl)propyl]amino}-methyl)pyridine-4-carbaldehyde], the IC50 on KDM4C (JMJD2C) is over 2500 nM; at KDM5B it was under 250 nM.

As to `CCN(CC)CCCCNC(=O)CNCc1cc(C=O)ccn1` [Compound 112, N-[4-(diethylamino)-butyl]-2-{[(4-formylpyridin-2-yl)methyl]amino}-acetamide], the IC50 on KDM4C (JMJD2C) was 250 to 2500 nM; against KDM5B, over 2500 nM.

For the molecule `CN(C)CCCCCNCc1cc(C=O)ccn1` [Compound 114, 2-({[5-(dimethylamino)-pentyl]amino}methyl)-pyridine-4-carbaldehyde], the IC50 is 250 to 2500 nM at KDM4C (JMJD2C) and under 250 nM against KDM5B.

As to `CCN(CC)CCCCN(Cc1cc(C=O)ccn1)C(=O)C(F)(F)F` [Compound 115, N-[4-(diethylamino)butyl]-2,2,2-trifluoro-N-[(4-formylpyridin-2-yl)methyl]acetamide], the IC50 on KDM4C (JMJD2C) was over 2500 nM; against KDM5B, under 250 nM.

As for `CCN(CC(C)(C)N(C)C)C(=O)CNCc1cc(C=O)ccn1` [Compound 118, N-[2-(dimethylamino)-2-methylpropyl]-N-ethyl-2-{[(4-formylpyridin-2-yl)methyl]amino}-acetamide], the IC50 at KDM4C (JMJD2C) and on KDM5B was under 250 nM in each case.

The IC50 is the point on the concentration scale where inhibition reaches its midpoint.
